According to patent US6579881B2 (Eisai Co., Ltd., priority 1997, dated 2003):

How the values were obtained:
serotonin 2 receptor = serotonin 2 receptor (Rattus norvegicus, UniProt P14842); experiment: Binding test on [3H] ketanserin (serotonin 2 receptor); conditions: [3H] ketanserin 0.3 nM, receptor fraction of rat cerebral cortex; read-out: 5HT2
serotonin 1A receptor = biological target: T1, serotonin 1A receptor (Rattus norvegicus, UniProt P19327); experiment: Binding test on [3H] 8-hydroxy-dipropylaminotetralin (serotonin 1A receptor); conditions: [3H] 8-OH-DPAT 0.5 nM, receptor fraction of rat hippocampus; read-out: 5HT1a
T1 construct: To the receptor fraction of the hippocampus were added a test compound and 0.5 nM of [^3H]; 8-hydroxy-dipropylaminotetralin; from tissue; host or cells: SD rat hippocampus, membrane (receptor) fraction
T1 sequence (P19327 1-422): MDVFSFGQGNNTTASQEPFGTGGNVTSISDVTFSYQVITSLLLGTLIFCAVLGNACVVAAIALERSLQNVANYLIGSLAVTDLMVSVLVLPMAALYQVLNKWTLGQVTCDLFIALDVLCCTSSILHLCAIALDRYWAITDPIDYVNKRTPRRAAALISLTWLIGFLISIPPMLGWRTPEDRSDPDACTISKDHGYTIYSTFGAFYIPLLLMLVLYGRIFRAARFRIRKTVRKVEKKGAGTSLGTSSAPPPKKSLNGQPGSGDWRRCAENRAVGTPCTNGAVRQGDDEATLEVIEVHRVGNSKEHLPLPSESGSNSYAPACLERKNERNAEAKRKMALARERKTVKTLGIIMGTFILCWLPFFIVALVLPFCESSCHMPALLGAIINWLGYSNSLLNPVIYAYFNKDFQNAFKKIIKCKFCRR

Sequence of serotonin 2 receptor (P14842 whole entry): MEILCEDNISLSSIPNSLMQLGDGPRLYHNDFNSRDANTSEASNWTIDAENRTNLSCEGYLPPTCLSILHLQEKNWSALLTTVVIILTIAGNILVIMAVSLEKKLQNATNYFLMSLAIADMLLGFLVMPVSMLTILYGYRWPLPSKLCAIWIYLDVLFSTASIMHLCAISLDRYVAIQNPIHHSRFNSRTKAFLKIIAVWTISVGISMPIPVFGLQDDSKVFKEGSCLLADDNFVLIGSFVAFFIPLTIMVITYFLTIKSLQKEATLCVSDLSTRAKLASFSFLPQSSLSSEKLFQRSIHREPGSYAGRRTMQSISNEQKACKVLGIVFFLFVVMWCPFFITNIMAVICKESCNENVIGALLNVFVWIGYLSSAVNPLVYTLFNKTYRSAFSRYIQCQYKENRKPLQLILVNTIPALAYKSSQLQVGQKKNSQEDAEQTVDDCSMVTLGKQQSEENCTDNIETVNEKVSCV

| Ki (serotonin 2 receptor) [nM] | Ki (serotonin 1A receptor) [nM] | Molecule |
| --- | --- | --- |
| 16.3 | 8.5 | Fc1cc(F)cc(CCN2CCC(N3CCc4ccccc43)CC2)c1 [Example 12, 1-[1-(3,5-difluorophenethyl)piperidin-4-yl]indoline] |
| 2.6 | 7.8 | CCC(=O)NCc1ccc2c(c1)N(C1CCN(CCc3ccc(F)cc3)CC1)CC2 [Example 156, 1-[1-(4-fluorophenethyl)piperidin-4-yl]-6-propionylaminomethylindoline] |
| 14.3 | 0.5 | CS(=O)(=O)Nc1ccc2c(c1)N(C1CCN(CCc3ccc(F)cc3)CC1)CC2 [Example 116, 1-[1-(4-fluorophenethyl)piperidin-4-yl]-6-methanesulfonylaminoindoline] |
| 13.9 | 109 | Fc1ccc(CCN2CCC(CN3CCc4ccccc43)CC2)cc1 [Example 16, 1-[1-(4-fluorophenethyl)piperidin-4-yl]methylindoline] |
| 29.6 | 2.4 | c1ccc2c(c1)CCN2C1CCN(CCCOc2ccc3c(c2)OCO3)CC1 [Example 78, 1-{1-[3-(3,4-methylenedioxypheoxy)propyl]piperidin-4-yl}indoline] |
| 4.73 | 14.6 | COc1ncccc1Cc1ccc2c(c1)N(C1CCN(CCc3ccc(F)cc3)CC1)CC2 [Example 185, 1-[1-(4-fluorophenethyl)piperidin-4-yl]-6-[1-(2-methoxypyridin-3-yl)methyl]indoline] |
| 7.2 | 34.9 | OC(CCCN1CCC(N2CCc3ccccc32)CC1)c1ccc(F)cc1 (stereo not drawn) [Example 73, 1-{1-[4-(4-fluorophenyl)-4-hydroxybutyl]piperidin-4-yl}indoline] |
| 5.3 | 1.5 | Fc1ccc(CCN2CCC(N3CCc4ccc(F)nc43)CC2)cc1 [Example 261, 1-[1-(4-fluorophenethyl)piperidin-4-yl]-6-fluoro-7-azaindoline] |
| 16 | 23.3 | Nc1ccc2c(c1)N(C1CCN(CCc3ccc(F)cc3)CC1)CC2 [Example 110, 1-[1-(4-fluorophenethyl)piperidin-4-yl]-6-aminoindoline] |
| 53 | > 200 | CCN1CCC(CN2CC(Cc3ccc(OC)cc3)c3ccccc32)CC1 (stereo not drawn) [Example 243, 1-[(1-ethylpiperidin-4-yl)methyl]-3-(4-methoxybenzyl)indoline] |
| 90.4 | 0.22 | CCN1CCN([C@@H]2c3cc(OC)ccc3CC[C@H]2Oc2ccc(C(F)(F)F)cc2)CC1 (relative stereo) [Example 279, trans-1-(4-ethylpiperazin-1-yl)-7-methoxy-2-(4-trifluoromethylphenoxy)-1,2,3,4-tetrahydronaphthalene] |
| 34.8 | 26.2 | c1csc(CCN2CCC(N3CCc4ccccc43)CC2)c1 [Example 58, 1-{1-[2-(2-thienyl)ethyl]piperidin-4-yl}indoline] |
| 11.2 | 1 | CN(c1ccc2c(c1)N(C1CCN(CCc3ccc(F)cc3)CC1)CC2)S(C)(=O)=O [Example 120] |
| 24.3 | 5.7 | CCNc1ccc(CCN2CCC(N3CCc4ccccc43)CC2)cc1 [Example 33, 1-[1-(4-ethylaminophenethyl)piperidin-4-yl]indoline] |
| 12.8 | 34.3 | Fc1ccccc1CCN1CCC(N2CCc3ccccc32)CC1 [Example 7, 1-[1-(2-fluorophenethyl)piperidin-4-yl]indoline] |
| 7.75 | 2.41 | CC(=O)N(C)Cc1ccc2c(c1)N(C1CCN(CCc3ccc(F)cc3)CC1)CC2 [Example 163, 1-[1-(4-fluorophenethyl)piperidin-4-yl]-6-N-methylacetamidomethylindoline] |
| 48.2 | 37.6 | CC(=O)NCc1ccc2c(c1)N(C1CCN(CCCOc3ccc(F)cc3)CC1)CC2 [Example 232, 1-[1-(4-fluorophenoxypropyl)piperidin-4-yl]-6-acetamidomethylindoline] |

| Ki (serotonin 2 receptor) [nM] | Ki (serotonin 1A receptor) [nM] | Molecule |
| --- | --- | --- |
| 1.2 | 3.2 | c1ccc2c(c1)CCN2C1CCN(CCc2ccc3ncsc3c2)CC1 [Example 63, 1-{1-[2-(6-benzothiazolyl)ethyl]piperidin-4-yl}indoline] |
| 28.9 | 12 | c1ccc2c(c1)CCN2C1CCN(CCc2ccsc2)CC1 [Example 59, 1-{1-[2-(3-thienyl)ethyl]piperidin-4-yl}indoline] |
| 1.22 | 5.5 | CC(=O)NC(C)c1ccc2c(c1)N(C1CCN(CCc3ccc(F)cc3)CC1)CC2 (stereo not drawn) [Example 165, 1-[1-(4-fluorophenethyl)piperidin-4-yl]-6-(1-acetamidoethyl)indoline] |
| 27.6 | > 200 | CCN1CCC(N2CC(c3ccc(F)cc3)c3ccccc32)CC1 (stereo not drawn) [Example 240, 1-(1-ethylpiperidin-4-yl)-3-(4-fluorophenyl)indoline] |
| 0.05 | 1.67 | OC(c1cccnc1)c1ccc2c(c1)N(C1CCN(CCc3ccc(F)cc3)CC1)CC2 (stereo not drawn) [Example 176, 1-[1-(4-fluorophenethyl)piperidin-4-yl]-6-[1-hydroxy-1-(3-pyridyl)methyl]indoline] |
| 1.19 | 1.98 | OC(c1ccc2c(c1)N(C1CCN(CCc3ccc(F)cc3)CC1)CC2)c1ccc[nH]1 (stereo not drawn) [Example 199, 1-[1-(4-fluorophenethyl)piperidin-4-yl]-6-[1-hydroxy-1-(2-pyrrolyl)methyl]indoline] |
| 26.5 | 115 | C[C@@H]1CN(CCc2ccc(F)cc2)CC[C@@H]1N1CCc2ccccc21 (relative stereo) [Example 79, cis-1-[1-(4-fluorophenethyl)-3-methylpiperidin-4-yl]indoline] |
| 9.62 | 1030 | CC(O)(c1ccc2c(c1)N(C1CCN(CCc3ccc(F)cc3)CC1)CC2)c1ccccn1 (stereo not drawn) [Example 181, 1-[1-(4-fluorophenethyl)piperidin-4-yl]-6-[1-hydroxy-1-(2-pyridyl)ethyl]indoline] |
| 1.7 | 20.7 | OCc1cncc(CCN2CCC(N3CCc4ccccc43)CC2)c1 [Example 56, 1-{1-[2-(3-hydroxymethylpyridin-5-yl)ethyl]piperidin-4-yl}indoline] |
| 0.18 | 1.03 | Fc1ccc(CCN2CCC(N3CCc4ccc(Cn5cncn5)cc43)CC2)cc1 [Example 213, 1-[1-(4-fluorophenethyl)piperidin-4-yl]-6-(1,2,4-triazol-2-yl)methylindoline] |
| 6 | 8.1 | Fc1ccc(CCN2CCC(N3CCc4ccccc43)CC2)c(F)c1 [Example 10, 1-[1-(2,4-difluorophenethyl)piperidin-4-yl]indoline] |
| 1.85 | 0.24 | OC(c1ccc2c(c1)N(C1CCN(CCc3ccc(F)cc3)CC1)CC2)c1ccccn1 (stereo not drawn) [Example 174, 1-[1-(4-fluorophenethyl)piperidin-4-yl]-6-[1-hydroxy-1-(2-pyridyl)methyl]indoline] |
| 56.2 | 170 | CCN1CC[C@H](N2CCc3ccccc32)[C@@H](COCc2ccc(F)cc2)C1 (relative stereo) [Example 85, trans-1-[1-ethyl-3-(4-fluorobenzyloxymethyl)piperidin-4-yl]indoline] |
| 2.9 | 1.02 | OC(c1ccc(Cl)nc1)c1ccc2c(c1)N(C1CCN(CCc3ccc(F)cc3)CC1)CC2 (stereo not drawn) [Example 192, 1-[1-(4-fluorophenethyl)piperidin-4-yl]-6-[1-hydroxy-1-(2-chloropyridin-5-yl)methyl]indoline] |
| 30.3 | 3.6 | O=C(NCCN1CCC(N2CCc3ccccc32)CC1)c1ccc(F)cc1 [Example 75, 1-[1-(4-fluorobenzamido)ethylpiperidin-4-yl]indoline] |
| 0.25 | 9.58 | CNC(=O)Cc1ccc2c(c1)N(C1CCN(CCc3ccc(F)cc3)CC1)CC2 [Example 148, 1-[1-(4-fluorophenethyl)piperidin-4-yl]-6-(methylcarbamoylmethyl)indoline] |

| Molecule | Ki (serotonin 2 receptor) [nM] | Ki (serotonin 1A receptor) [nM] |
| --- | --- | --- |
| O=C(c1ccc2c(c1)N(C1CCN(CCc3ccc(F)cc3)CC1)CC2)c1nccs1 [Example 194, 1-[1-(4-fluorophenethyl)piperidin-4-yl]-6-(2-thiazolylcarbonyl)indoline] | > 200 | 4.59 |
| CCN1CCC(N2CCc3ccc(NS(=O)(=O)c4ccc(F)cc4)cc32)CC1 [Example 238, 1-(1-ethylpiperidin-4-yl)-6-(4-fluorobenzenesulfonylamino)indoline] | > 200 | 86.6 |
| COc1ccc(CCN2CCC(N3CCc4ccc(Cl)nc43)CC2)cc1 [Example 263, 1-[1-(4-methoxyphenethyl)piperidin-4-yl]-6-chloro-7-azaindoline] | > 200 | 0.46 |
| c1ccc2c(c1)CCN2C1CCN(CCc2nccs2)CC1 [Example 60, 1-[1-(2-thiazolylethyl)piperidin-4-yl]indoline] | > 200 | 60.8 |
| Fc1ccc(N2CCC(N3CCc4ccccc43)CC2)cc1 [Example 1, 1-[1-(4-fluorophenyl)piperidin-4-yl]indoline] | > 200 | 624 |
| 1-[1-(4-fluorophenethyl)piperidin-4-yl]-6-(1,2,3-triazol-1-yl)methylindoline and 1-[1-(4-fluorophenethyl)piperidin-4-yl]-6-(1,2,3-triazol-2-yl)methylindoline [Example 212] | 0.36 | 0.82 |
